Some results are limits rather than exact numbers.

Data set [1] deals with melanoma, renal cell carcinoma, and ovarian cancer. Conditions: including decreased metastasis and increased overall survival; cited from earlier work.
The conditions of data set [2]: subcutaneous injection; cited from earlier work.
Data set [3] in a line: Solubility of X4P-001 as a function of pH. Format: physicochemical.
The conditions of data set [4]: oral administration, healthy volunteers and HIV patients; cited from earlier work.
Another data set can be described thus: in vivo. The protocol:
In certain embodiments, the dosage composition may be provided twice a day in divided dosage, approximately 12 hours apart. In other embodiments, the dosage composition may be provided once daily. […] Dosage for oral administration may be from about 100 mg to about 1200 mg once or twice per day.

The subject of data set [5] is advanced clear-cell renal-cell carcinoma. The note with it: cited from earlier work; for objective response rate: patients after one or two antiangiogenic regimens, nivolumab 3 mg/kg iv every two weeks or everolimus 10 mg orally daily, P<0.001.
Where [6] appears, read: nivolumab compared to everolimus.

In the case of `c1cc(CN2CCCNCCNCCCNCC2)ccc1CN1CCCNCCNCCCNCC1` [Plerixafor, reference compound], in data set [1], the anti-tumor activity result is recorded as “significant anti-tumor activity”. For the same compound, in data set [2], the half life entry is on record as “very short”.

One may read the solubility as how much of the substance goes into solution per volume. As usually defined, the half-life is the time needed for the level to fall by half in the phase considered. A high value points to slow loss. As to `NCCCCN(Cc1nc2ccccc2[nH]1)[C@H]1CCCc2cccnc21` [X4P-001], the anti-tumor activity entry in data set [1] is “significant anti-tumor activity”. The compound also displayed a solubility in data set [3] (aqueous buffer, pH range 3.0 to 8.0 (freely soluble)) greater than 100 mg/mL. For the same compound, the Solubility in water entry in data set [3] (water) is listed as “only slightly soluble”. Moreover, in data set [4], the “pharmacodynamic activity: circulating white blood cells (WBCs)” value is “dose- and concentration-related changes”; the “volume of distribution (VL)” value is “high”. Moreover, the terminal half-life result in “in vivo” is listed as “approximately 14.5 hrs”. Besides, the half-life in “in vivo” (terminal half-life) lay within 12 to 24 h.

`CO[C@H]1C[C@@H]2CC[C@@H](C)[C@@](O)(O2)C(=O)C(=O)N2CCCC[C@H]2C(=O)O[C@H]([C@H](C)C[C@@H]2CC[C@@H](OCCO)[C@H](OC)C2)CC(=O)[C@H](C)/C=C(\C)[C@@H](O)[C@@H](OC)C(=O)[C@H](C)C[C@H](C)/C=C/C=C/C=C/1C` [everolimus]: the objective response rate in data set [5] was 5%.

With “nivolumab: human IgG4 anti-PD-1 monoclonal antibody”, in data set [5] (setting [6]), the “incidence of Grade 3 or 4 treatment-related adverse events” value is recorded as “lower incidence” and the median overall survival result was “longer”. Moreover, in data set [5], the objective response rate is reported as 25%.
